# Experimental data: ChEMBL document CHEMBL4376865, “Discovery and Characterization of 1H-1,2,3-Triazole Derivatives as Novel Prostanoid EP4 Receptor Antagonists for Cancer Immunotherapy” (J Med Chem, 2020); call rule not given here
# Columns and labels:
# [1] = molecular target: Prostaglandin E2 receptor EP4 subtype (Mus musculus, UniProt P32240); assay: Antagonist activity at mouse EP4 expressed in CHO cells coexpressing G16-alpha assessed as intracellular calcium flux preincubated for 15 mins followed by addition of PGE2 by calcium flux assay; format: functional, cell-based
# [2] = molecular target: Prostaglandin E2 receptor EP4 subtype (Homo sapiens, UniProt P35408)
# Description: Antagonist activity at human EP4 expressed in CHO cells coexpressing G16-alpha assessed as intracellular calcium flux preincubated for 15 mins followed by addition of PGE2 by calcium flux assay
# CYP2C9 = CYP2C9 (Homo sapiens, UniProt P11712); assay: Inhibition of CYP2C9 in human liver microsomes at 20 uM using tolbutamide as substrate incubated for 60 mins by HPLC analysis relative to control; format: ADME; details: probe tolbutamide
# Cytochrome P450 3A4 = Cytochrome P450 3A4 (Homo sapiens, UniProt P08684); assay: Inhibition of CYP3A4 in human liver microsomes at 20 uM using testosterone as substrate incubated for 60 mins by HPLC analysis; format: ADME; details: 1 h
# CYP2B6 = molecular target: T1, CYP2B6 (Homo sapiens, UniProt P20813); assay: Inhibition of CYP2B6 in human liver microsomes at 20 uM incubated for 60 mins by HPLC analysis relative to control; format: ADME
# T1 sequence (P20813 whole entry): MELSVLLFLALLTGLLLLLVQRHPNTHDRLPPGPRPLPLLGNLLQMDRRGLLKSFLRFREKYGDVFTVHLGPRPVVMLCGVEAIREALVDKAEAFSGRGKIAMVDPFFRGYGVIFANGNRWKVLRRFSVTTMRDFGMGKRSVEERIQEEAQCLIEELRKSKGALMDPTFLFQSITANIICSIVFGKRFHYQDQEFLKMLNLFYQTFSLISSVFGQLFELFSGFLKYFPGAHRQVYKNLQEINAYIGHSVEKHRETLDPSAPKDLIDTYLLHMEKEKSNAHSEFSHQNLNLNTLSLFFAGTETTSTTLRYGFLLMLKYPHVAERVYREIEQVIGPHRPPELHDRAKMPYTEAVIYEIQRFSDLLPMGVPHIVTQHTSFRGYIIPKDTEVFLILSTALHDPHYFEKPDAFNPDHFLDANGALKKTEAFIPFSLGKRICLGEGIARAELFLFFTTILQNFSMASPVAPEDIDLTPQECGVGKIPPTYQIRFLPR
# CYP2E1 = CYP2E1 (Homo sapiens, UniProt P05181); assay: Inhibition of CYP2E1 in human liver microsomes at 20 uM using chlorzoxazone as substrate incubated for 60 mins by HPLC analysis relative to control; format: ADME; details: probe chlorzoxazone
# [3] = molecular target: Prostaglandin E2 receptor EP2 subtype (Homo sapiens, UniProt P43116)
# Description: Antagonist activity at human EP2 expressed in CHO cells coexpressing G16-alpha assessed as intracellular calcium flux preincubated for 15 mins followed by addition of PGE2 by calcium flux assay
# [4] = molecular target: T2, Prostaglandin E2 receptor EP1 subtype (Homo sapiens, UniProt P34995); assay: Antagonist activity at human EP1 expressed in CHO cells coexpressing G16-alpha assessed as intracellular calcium flux preincubated for 15 mins followed by addition of PGE2 by calcium flux assay; format: functional, cell-based
# T2 sequence (P34995 whole entry): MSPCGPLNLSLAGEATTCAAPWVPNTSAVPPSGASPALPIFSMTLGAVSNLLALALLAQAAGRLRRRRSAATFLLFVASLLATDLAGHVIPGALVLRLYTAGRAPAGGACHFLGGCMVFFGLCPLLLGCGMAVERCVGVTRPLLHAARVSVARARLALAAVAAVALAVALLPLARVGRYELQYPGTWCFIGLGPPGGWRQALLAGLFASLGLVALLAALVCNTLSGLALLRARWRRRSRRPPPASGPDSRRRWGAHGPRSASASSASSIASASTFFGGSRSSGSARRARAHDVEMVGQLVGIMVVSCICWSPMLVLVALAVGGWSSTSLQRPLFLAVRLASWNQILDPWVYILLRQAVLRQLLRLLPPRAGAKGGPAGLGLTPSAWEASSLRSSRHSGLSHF
# CYP1A2 = molecular target: T3, CYP1A2 (Homo sapiens, UniProt P05177); assay: Inhibition of CYP1A2 in human liver microsomes at 20 uM using phenacetin as substrate incubated for 30 mins by HPLC analysis relative to control; format: ADME; details: probe phenacetin
# T3 sequence (P05177 whole entry): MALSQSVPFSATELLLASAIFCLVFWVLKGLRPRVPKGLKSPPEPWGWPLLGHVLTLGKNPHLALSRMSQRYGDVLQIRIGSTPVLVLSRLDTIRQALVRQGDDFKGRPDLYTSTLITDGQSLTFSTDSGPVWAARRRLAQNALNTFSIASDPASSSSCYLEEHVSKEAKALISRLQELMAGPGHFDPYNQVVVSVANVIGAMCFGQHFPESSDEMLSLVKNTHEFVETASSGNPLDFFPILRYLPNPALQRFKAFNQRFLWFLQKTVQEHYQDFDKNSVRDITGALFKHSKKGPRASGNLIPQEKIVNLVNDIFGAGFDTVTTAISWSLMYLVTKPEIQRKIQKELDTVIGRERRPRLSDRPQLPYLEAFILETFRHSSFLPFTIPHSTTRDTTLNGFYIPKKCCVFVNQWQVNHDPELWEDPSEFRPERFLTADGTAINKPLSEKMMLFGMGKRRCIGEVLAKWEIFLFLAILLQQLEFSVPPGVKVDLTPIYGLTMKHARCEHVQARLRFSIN
# CYP2D6 = CYP2D6 (Homo sapiens, UniProt P10635); assay: Inhibition of CYP2D6 in human liver microsomes at 20 uM using dextromethorphan as substrate incubated for 60 mins by HPLC analysis relative to control; format: ADME; details: probe dextromethorphan
# in vitro [5] = details: human, liver microsomes
# [6] = Metabolic stability in human liver microsomes assessed as compound remaining at 10 uM incubated for 1 hr
# [7] = molecular target: T4, Prostaglandin E2 receptor EP3 subtype (Homo sapiens, UniProt P43115)
# T4 sequence (P43115 whole entry): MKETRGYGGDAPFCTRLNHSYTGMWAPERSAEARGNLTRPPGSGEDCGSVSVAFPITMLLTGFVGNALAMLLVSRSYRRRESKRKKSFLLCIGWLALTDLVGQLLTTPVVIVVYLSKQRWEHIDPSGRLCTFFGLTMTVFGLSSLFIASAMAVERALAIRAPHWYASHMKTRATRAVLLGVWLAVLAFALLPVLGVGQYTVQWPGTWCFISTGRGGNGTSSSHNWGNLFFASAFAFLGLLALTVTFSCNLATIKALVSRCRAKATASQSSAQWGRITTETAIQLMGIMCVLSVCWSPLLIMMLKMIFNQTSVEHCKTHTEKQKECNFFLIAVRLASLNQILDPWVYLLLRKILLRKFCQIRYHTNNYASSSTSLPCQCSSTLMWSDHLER
# Description: Antagonist activity at human EP3 expressed in CHO cells coexpressing G16-alpha assessed as intracellular calcium flux preincubated for 15 mins followed by addition of PGE2 by calcium flux assay
# in vitro [8] = details: human, liver microsomes; remark: listed apart in the source
# Sequence of Prostaglandin E2 receptor EP4 subtype (Homo sapiens, UniProt P35408) (P35408 whole entry): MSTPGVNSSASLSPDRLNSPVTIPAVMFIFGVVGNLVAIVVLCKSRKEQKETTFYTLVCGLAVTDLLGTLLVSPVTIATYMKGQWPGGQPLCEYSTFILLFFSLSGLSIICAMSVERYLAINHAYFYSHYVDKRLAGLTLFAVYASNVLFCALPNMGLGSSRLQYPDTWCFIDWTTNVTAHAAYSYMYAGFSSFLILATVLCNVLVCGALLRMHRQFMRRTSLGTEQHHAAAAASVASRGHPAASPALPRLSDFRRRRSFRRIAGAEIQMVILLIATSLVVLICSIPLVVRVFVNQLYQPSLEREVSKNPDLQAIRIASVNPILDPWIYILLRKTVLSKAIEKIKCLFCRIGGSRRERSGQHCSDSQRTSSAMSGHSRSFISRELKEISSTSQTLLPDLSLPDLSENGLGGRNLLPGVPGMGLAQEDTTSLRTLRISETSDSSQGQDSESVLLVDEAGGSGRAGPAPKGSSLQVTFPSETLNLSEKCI
# Sequence of Prostaglandin E2 receptor EP4 subtype (Mus musculus, UniProt P32240) (P32240 whole entry): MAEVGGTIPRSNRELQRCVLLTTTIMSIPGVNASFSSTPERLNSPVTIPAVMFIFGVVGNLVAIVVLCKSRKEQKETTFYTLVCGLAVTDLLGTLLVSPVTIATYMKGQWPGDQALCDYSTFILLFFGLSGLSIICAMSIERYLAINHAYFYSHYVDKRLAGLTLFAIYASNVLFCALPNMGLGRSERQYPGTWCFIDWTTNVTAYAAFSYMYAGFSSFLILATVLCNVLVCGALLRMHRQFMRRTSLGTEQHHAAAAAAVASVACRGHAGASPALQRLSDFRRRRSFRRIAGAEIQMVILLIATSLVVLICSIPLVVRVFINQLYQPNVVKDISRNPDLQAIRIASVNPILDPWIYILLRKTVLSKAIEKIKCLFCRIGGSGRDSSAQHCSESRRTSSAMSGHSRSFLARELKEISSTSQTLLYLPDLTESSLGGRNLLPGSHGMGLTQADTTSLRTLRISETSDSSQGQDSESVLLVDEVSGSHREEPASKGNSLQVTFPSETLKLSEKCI
# Sequence of Prostaglandin E2 receptor EP2 subtype (P43116 whole entry): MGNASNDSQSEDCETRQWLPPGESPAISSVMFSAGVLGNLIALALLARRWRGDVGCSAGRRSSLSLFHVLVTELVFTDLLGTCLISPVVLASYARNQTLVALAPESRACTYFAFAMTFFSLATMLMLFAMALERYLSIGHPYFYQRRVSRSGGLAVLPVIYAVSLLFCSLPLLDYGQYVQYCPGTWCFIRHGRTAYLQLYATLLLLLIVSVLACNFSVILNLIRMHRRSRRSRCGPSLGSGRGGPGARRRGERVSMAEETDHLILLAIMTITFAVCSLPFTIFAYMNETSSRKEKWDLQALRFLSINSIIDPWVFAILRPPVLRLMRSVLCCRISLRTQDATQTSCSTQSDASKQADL
# Sequence of CYP2E1 (P05181 whole entry): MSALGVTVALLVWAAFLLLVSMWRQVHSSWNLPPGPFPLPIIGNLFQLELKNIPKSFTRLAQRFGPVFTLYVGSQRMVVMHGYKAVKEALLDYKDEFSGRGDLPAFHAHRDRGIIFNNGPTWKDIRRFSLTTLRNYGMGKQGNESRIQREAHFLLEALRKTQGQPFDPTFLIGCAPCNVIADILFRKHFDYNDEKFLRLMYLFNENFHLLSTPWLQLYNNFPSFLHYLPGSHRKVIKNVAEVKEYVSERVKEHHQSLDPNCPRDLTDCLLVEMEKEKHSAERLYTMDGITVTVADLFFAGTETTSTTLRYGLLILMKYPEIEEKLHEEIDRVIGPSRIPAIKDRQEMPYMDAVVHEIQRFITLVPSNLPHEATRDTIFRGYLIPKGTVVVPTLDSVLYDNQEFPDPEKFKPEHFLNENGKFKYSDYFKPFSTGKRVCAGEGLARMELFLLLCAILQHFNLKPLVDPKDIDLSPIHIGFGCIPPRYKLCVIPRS
# Sequence of CYP2D6 (P10635 whole entry): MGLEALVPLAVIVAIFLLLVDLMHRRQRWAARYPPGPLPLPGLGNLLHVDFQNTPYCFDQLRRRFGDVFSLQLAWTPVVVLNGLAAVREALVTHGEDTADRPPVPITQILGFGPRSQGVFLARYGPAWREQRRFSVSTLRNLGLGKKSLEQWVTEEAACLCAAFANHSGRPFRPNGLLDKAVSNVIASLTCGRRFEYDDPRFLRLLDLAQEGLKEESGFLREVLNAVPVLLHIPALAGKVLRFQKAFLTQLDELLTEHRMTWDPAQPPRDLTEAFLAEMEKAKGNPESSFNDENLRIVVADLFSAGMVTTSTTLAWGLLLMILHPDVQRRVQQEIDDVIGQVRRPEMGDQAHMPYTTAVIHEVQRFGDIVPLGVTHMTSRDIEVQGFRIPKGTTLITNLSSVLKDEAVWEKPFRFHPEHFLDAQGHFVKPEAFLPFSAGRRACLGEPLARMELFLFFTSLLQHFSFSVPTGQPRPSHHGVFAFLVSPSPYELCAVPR
# Sequence of CYP2C9 (P11712 whole entry): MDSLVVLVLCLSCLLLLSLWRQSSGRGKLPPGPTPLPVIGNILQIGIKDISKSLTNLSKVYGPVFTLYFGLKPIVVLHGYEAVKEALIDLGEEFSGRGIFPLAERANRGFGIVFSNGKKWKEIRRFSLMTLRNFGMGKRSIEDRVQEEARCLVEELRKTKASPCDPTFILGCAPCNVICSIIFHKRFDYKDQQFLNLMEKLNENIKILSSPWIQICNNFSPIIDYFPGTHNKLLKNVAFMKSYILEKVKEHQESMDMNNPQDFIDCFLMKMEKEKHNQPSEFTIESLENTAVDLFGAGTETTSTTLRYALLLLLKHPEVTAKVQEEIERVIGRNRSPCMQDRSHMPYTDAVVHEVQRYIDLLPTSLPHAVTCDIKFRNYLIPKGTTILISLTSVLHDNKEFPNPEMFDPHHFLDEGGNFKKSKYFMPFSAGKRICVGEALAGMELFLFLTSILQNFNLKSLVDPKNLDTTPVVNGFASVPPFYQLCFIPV
# Sequence of Cytochrome P450 3A4 (P08684 whole entry): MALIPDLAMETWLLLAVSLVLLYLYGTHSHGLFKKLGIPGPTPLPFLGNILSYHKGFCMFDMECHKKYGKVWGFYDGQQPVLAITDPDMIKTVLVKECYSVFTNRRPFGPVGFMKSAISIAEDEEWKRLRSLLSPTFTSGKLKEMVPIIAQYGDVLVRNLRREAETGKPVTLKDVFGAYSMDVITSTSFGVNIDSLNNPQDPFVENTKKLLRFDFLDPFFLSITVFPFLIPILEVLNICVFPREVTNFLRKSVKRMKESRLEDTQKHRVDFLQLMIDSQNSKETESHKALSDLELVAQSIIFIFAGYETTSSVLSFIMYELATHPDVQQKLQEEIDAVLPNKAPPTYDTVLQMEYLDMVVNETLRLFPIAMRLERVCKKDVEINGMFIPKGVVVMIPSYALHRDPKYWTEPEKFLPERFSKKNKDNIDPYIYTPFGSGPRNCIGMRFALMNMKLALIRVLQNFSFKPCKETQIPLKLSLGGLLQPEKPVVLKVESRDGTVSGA
structure (smiles),measurement,setting,value
C/C=C/c1nnn(Cc2ccc(C(F)(F)F)cc2)c1C(=O)NCC1CCC(C(=O)O)CC1 (stereo not drawn),IC50,[1],220 nM
C[C@H](NC(=O)c1c(-c2ccc(F)cc2)nnn1Cc1ccc(C(F)(F)F)cc1)c1ccc(C(=O)O)cc1,IC50,[2],57.9 nM
C[C@H](NC(=O)c1nnn(Cc2ccc(C(F)(F)F)cc2)c1C(F)(F)F)c1ccc(C(=O)O)cc1,IC50,[2],> 10000 nM
COc1cccc(Cn2nnc(-c3ccccc3)c2C(=O)N[C@@H](C)c2ccc(C(=O)O)cc2)c1,IC50,[2],96.8 nM
CC#Cc1nnn(Cc2ccc(C(F)(F)F)cc2)c1C(=O)N[C@@H](C)c1ccc(C(=O)O)cc1,"inhibition at 1 h, 20 µM",CYP2C9,69%
same,inhibition (INH),Cytochrome P450 3A4,Not Active
same,"inhibition at 1 h, 20 µM",CYP2B6,34%
same,"inhibition at 1 h, 20 µM",CYP2E1,76%
same,IC50,[3],> 10000 nM
same,IC50,[1],70.9 nM
same,IC50,[4],> 10000 nM
same,"inhibition at 0.5 h, 20 µM",CYP1A2,82%
same,"inhibition at 1 h, 20 µM",CYP2D6,38%
same,IC50,[2],32 nM
C[C@H](NC(=O)c1c(-c2ccccc2)nnn1Cc1ccc(F)cc1)c1ccc(C(=O)O)cc1,IC50,[2],330 nM
COc1ccc(Cn2nnc(-c3ccccc3)c2C(=O)N[C@@H](C)c2ccc(C(=O)O)cc2)cc1OC,IC50,[2],119 nM
C/C=C/c1nnn(Cc2ccc(C(F)(F)F)cc2)c1C(=O)NC1(c2ccc(C(=O)O)cc2)CC1,IC50,[1],33.7 nM
same,IC50,[2],13.9 nM
C[C@H](NC(=O)c1c(C(F)(F)F)nnn1Cc1ccc(C(F)(F)F)cc1)c1ccc(C(=O)O)cc1,IC50,[2],225 nM
C[C@H](NC(=O)c1c(-c2ccoc2)nnn1Cc1ccc(C(F)(F)F)cc1)c1ccc(C(=O)O)cc1,IC50,[3],> 10000 nM
same,"half-life at 1 h, 10 µM",in vitro [5],> 2.42 h
same,IC50,[1],57.6 nM
same,IC50,[4],> 10000 nM
same,"remaining at 1 h, 10 µM",[6],87.9%
same,IC50,[2],45.6 nM
same,IC50,[7],> 10000 nM
same,"microsomal CLint at 1 h, 10 µM",in vitro [8],< 9.6 µL/min/mg
C[C@H](NC(=O)c1cnnn1Cc1ccc(C(F)(F)F)cc1)c1ccc(C(=O)O)cc1,IC50,[2],> 10000 nM
C[C@H](NC(=O)c1c(C2CCC2)nnn1Cc1ccc(C(F)(F)F)cc1)c1ccc(C(=O)O)cc1,IC50,[2],75.3 nM
C[C@H](NC(=O)c1c(C2CCCCC2)nnn1Cc1ccc(C(F)(F)F)cc1)c1ccc(C(=O)O)cc1,IC50,[2],161 nM
C[C@H](NC(=O)c1c(-c2ccccc2)nnn1CCOc1cccc(C(F)(F)F)c1)c1ccc(C(=O)O)cc1,"inhibition at 1 h, 20 µM",CYP2C9,67%
same,inhibition (INH),Cytochrome P450 3A4,Not Active
same,"inhibition at 1 h, 20 µM",CYP2B6,51%
same,"inhibition at 1 h, 20 µM",CYP2E1,67%
same,IC50,[3],> 10000 nM
same,IC50,[1],135 nM
same,IC50,[4],> 10000 nM
same,"inhibition at 0.5 h, 20 µM",CYP1A2,30%
same,"inhibition at 1 h, 20 µM",CYP2D6,30%
same,IC50,[7],> 10000 nM
C/C=C/c1nnn(Cc2ccc(C(F)(F)F)cc2)c1C(=O)N[C@H](C)c1ccc(C(=O)O)cc1,IC50,[2],> 1000 nM
C[C@H](NC(=O)c1c(-c2ccccc2)nnn1Cc1ccc(C(F)(F)F)cc1)c1ccc(C(=O)O)cc1,IC50,[3],> 10000 nM
same,"half-life at 1 h, 10 µM",in vitro [5],> 2.42 h
same,IC50,[1],906 nM
same,IC50,[4],> 10000 nM
same,"remaining at 1 h, 10 µM",[6],84.9%
same,IC50,[2],8.5 nM
same,IC50,[7],> 10000 nM
same,"microsomal CLint at 1 h, 10 µM",in vitro [8],< 9.6 µL/min/mg
C[C@H](NC(=O)c1c(C(F)(F)F)nnn1CCc1ccc(F)cc1)c1ccc(C(=O)O)cc1,IC50,[2],> 10000 nM
Cc1ccc(-c2nnn(Cc3ccc(C(F)(F)F)cc3)c2C(=O)N[C@@H](C)c2ccc(C(=O)O)cc2)s1,IC50,[3],> 10000 nM
same,IC50,[1],42.1 nM
same,IC50,[4],> 10000 nM
same,IC50,[7],> 10000 nM
C[C@H](NC(=O)c1c(-c2ccccc2)nnn1CC1CCCCC1)c1ccc(C(=O)O)cc1,IC50,[2],> 10000 nM
C[C@H](NC(=O)c1c(C2=CCCC2)nnn1Cc1ccc(C(F)(F)F)cc1)c1ccc(C(=O)O)cc1,IC50,[3],> 10000 nM
same,IC50,[1],400 nM
same,IC50,[4],> 10000 nM
same,IC50,[7],> 10000 nM
Cc1nnn(Cc2ccc(C(F)(F)F)cc2)c1C(=O)N[C@@H](C)c1ccc(C(=O)O)cc1,IC50,[2],> 10000 nM
COc1ccc(Cn2nnc(-c3ccccc3)c2C(=O)N[C@@H](C)c2ccc(C(=O)O)cc2)cc1,IC50,[2],9.3 nM
CCCc1c(C(=O)N[C@@H](C)c2ccc(C(=O)O)cc2)nnn1Cc1ccc(C(F)(F)F)cc1,IC50,[2],> 10000 nM
C/C=C/c1nnn(Cc2ccc(C(F)(F)F)cc2)c1C(=O)NCc1ccc(C(=O)O)cc1,IC50,[1],130 nM
same,IC50,[2],10.5 nM
C[C@H](NC(=O)c1c(C2=CCCCC2)nnn1Cc1ccc(C(F)(F)F)cc1)c1ccc(C(=O)O)cc1,IC50,[2],183 nM
C[C@H](NC(=O)c1nnn(CCc2ccc(F)cc2)c1C(F)(F)F)c1ccc(C(=O)O)cc1,IC50,[2],> 10000 nM
C[C@H](NC(=O)c1c(-c2ccccc2)nnn1CCOc1ccc(C(F)(F)F)cc1)c1ccc(C(=O)O)cc1,IC50,[2],49.1 nM
C[C@H](NC(=O)c1c(-c2ccccc2)nnn1CCOc1ccc(F)cc1)c1ccc(C(=O)O)cc1,IC50,[3],> 10000 nM
same,IC50,[1],132 nM
same,IC50,[4],> 10000 nM
same,IC50,[7],> 10000 nM
CCc1nnn(Cc2ccc(C(F)(F)F)cc2)c1C(=O)N[C@@H](C)c1ccc(C(=O)O)cc1,IC50,[2],> 10000 nM
C[C@H](NC(=O)c1nnn(Cc2cccc(C(F)(F)F)c2)c1C(F)(F)F)c1ccc(C(=O)O)cc1,IC50,[2],> 10000 nM
